Experimental data from patent publication US20250319019A1, “BUCCOMUCOADHESIVE PATCH-BASED DRUG DELIVERY SYSTEM FOR TACROLIMUS” (priority 2022, published 2025).

Key:
[1] = In-vivo pharmacokinetic evaluation, single dose; parameters: species or system New Zealand White rabbits; details: New Zealand White, whole blood
Description: The study was performed in New Zealand White rabbits as per the CPCSEA guidance. Overnight fasted animals were anaesthetised with Ketamine (30-40 mg/kg) and Xylazine (10 mg/kg) and 1 mg BAPTac patch was administered on the buccal surface of the oral cavity. The control group was administered 1 mg tacrolimus in PBS and 30% Ethanol. 0.5-0.75 ml of blood was taken from each rabbit via the marginal ear vein using 23 gauge needles through a butterfly cannula. The blood samples were collected before initiation of the treatment and after the administration of oral Tacrolimus or Tacrolimus-SLN-loaded buccal patch at time intervals of 15 min, 30 min, 1 h, 1.5 h, 2 h, 4 h, 6 h, 8 h, 12 h and 24 hours for the single dose PK study. Blood samples were collected in EDTA tubes, aliquoted and stored in amber-coloured tubes at −80° C. until quantification by LC-MS/MS.

[2] = poor and variable, intestinal absorption; background statement; cited from earlier work

concentration at 0.25 h ([1]; 1 mg, heading: Average Tac conc., rabbit blood, 0.25 (15 mins) after single 1 mg dose (oral or buccal patch), LC-MS/MS): 3.6 ng/mL | concentration at 0.5 h ([1]; 1 mg, heading: Average Tac conc., rabbit blood, 0.5 (30 mins) after single 1 mg dose (oral or buccal patch)): 12.3 ng/mL | concentration at 1 h ([1]; 1 mg, heading: Average Tac conc., rabbit blood, 1.0 (60 mins) after single 1 mg dose (oral or buccal patch)): 17.2 ng/mL | concentration at 1.5 h ([1]; 1 mg, heading: Average Tac conc., rabbit blood, 1.5 (90 mins) after single 1 mg dose (oral or buccal patch)): 46.9 ng/mL | concentration at 2 h ([1]; 1 mg, heading: Average Tac conc., rabbit blood, 2.0 (120 mins) after single 1 mg dose (oral or buccal patch)): 31.3 ng/mL | concentration at 4 h ([1]; 1 mg, heading: Average Tac conc., rabbit blood, 4.0 (240 mins) after single 1 mg dose (oral or buccal patch)): 14.5 ng/mL | concentration at 6 h ([1]; 1 mg, heading: Average Tac conc., rabbit blood, 6.0 (480 mins) after single 1 mg dose (oral or buccal patch)): 12.3 ng/mL | concentration at 8 h ([1]; 1 mg, heading: Average Tac conc., rabbit blood, 8.0 (640 mins) after single 1 mg dose (oral or buccal patch)): 11.8 ng/mL | concentration at 12 h ([1]; 1 mg, heading: Average Tac conc., rabbit blood, 12.0 (720 mins) after single 1 mg dose (oral or buccal patch)): 7.9 ng/mL | concentration at 24 h ([1]; 1 mg, heading: Average Tac conc., rabbit blood, 24.0 (1440 mins) after single 1 mg dose (oral or buccal patch)): 2.4 ng/mL | half-life ([1]; rabbit, single 1 mg dose (oral or buccal patch), read-out: Elimination t1/2 (converted)): 164 ± 174 min | AUC(0-t) ([1]; rabbit, single 1 mg dose (oral or buccal patch), read-out: Mean AUC0-24): 250 ± 78.2 ng·h/mL
SMILES: C=CC[C@@H]1/C=C(\C)C[C@H](C)C[C@H](OC)[C@H]2O[C@@](O)(C(=O)C(=O)N3CCCC[C@H]3C(=O)O[C@H](/C(C)=C/[C@@H]3CC[C@@H](O)[C@H](OC)C3)[C@H](C)[C@@H](O)CC1=O)[C@H](C)C[C@@H]2OC (relative stereo) [Tacrolimus, [3S[3R*[E(1S*,3S*,4S*)],4S*,5R*,8S*,9E,12R*,14R*,15S*,16R*,18S*,19S*, 26aR*]]5,6,8,11,12,13,14,15,16,17,18,19,24,25,26,26a-hexadecahydro-5,19-dihydroxy-3-[2-(4-hydroxy-3-methoxycyclohexyl)-1-methylethenyl]-14,16-dimethoxy-4,10,12,18-tetramethyl-8-(2-propenyl)-15,19-epoxy-3H-pyrido[2,1-c][1,4]oxaazacyclotricosine-1,7,20,21(4H,23H)-tetrone, monohydrate]
bioavailability (average) [2]: 25%
